Experimental data taken from patent US7115253B1, “Process for stabilizing antioxidant compounds, and aqueous compositions” (Industria E Comercio De Cosmeticos Natura Ltda., priority 1999, dated 2006).

Assay: degradation kinetics of 10% LAA solution under ultraviolet radiation
Type: physicochemical
Protocol: Comparative tests carried out by the inventors confirm the important paper of the reducing agent in the stabilization of antioxidants as per information obtained by Wrinkler B. S. in his work cited herein. A first test was carried out in order to determine the degradation kinetics of a 10% LAA solution in water-containing medium (m/v) under ultraviolet radiation, using a ultraviolet spectrophotometer, for 60 minutes.
A stoichiometric amount of the reducing agent of the oxidation reaction, that is, Glutathion, was added to the previous post-irradiated solution. The resultant solution was irradiated with ultraviolet radiation for further 60 minutes. By analyzing the remaining LAA, it could be noticed that 9.50% (m/v) thereof was still present. Therefore, the degradation of the LAA is dramatically minimized after the reducing agent is added.
In a third test, a 10% LAA solution was prepared in a water-containing medium (m/v) with a stoichiometric amount of the reducing agent Glutathion. […] However, the use of said compound in stoichiometric amounts still presents the already mentioned disadvantages.

For `O=C1O[C@H]([C@@H](O)CO)C(O)=C1O` [LAA, levogyrous ascorbic acid], the “remaining concentration of molecular LAA” value (10% LAA solution in water-containing medium, ultraviolet radiation 60 minutes, no reducing agent) was “about 9.58 % (m/v)”, the “remaining LAA” value (10% LAA solution with stoichiometric amount of Glutathion, ultraviolet radiation 60 minutes) was 9.98 % (m/v) and the “remaining LAA” value (stoichiometric Glutathion added to the post-irradiated solution, ultraviolet radiation for further 60 minutes) was 9.50 % (m/v).
